Results taken from patent US10702572B2, “Methods and compounds to suppress viral genome release and packaging” (Carnegie Mellon University, priority 2015, dated 2020).

Experiments:
in vitro = settings: human
HSV-2, strain G = assay: Plaque reduction assay in HFF cells; assay type: cell-based; settings: for EC50: reduces viral replication by 50%
VZV, strain Ellen = assay: Plaque reduction assay in HFF cells; assay type: cell-based; settings: for EC50: Human alphaherpesvirus 3, reduces viral replication by 50%; for EC90: Human alphaherpesvirus 3, reduces viral replication by 90%
Description: HCMV strain AD169 and VZV strain Ellen were obtained from the American Type Culture Collection (ATCC, Manassas, Va.).
(§1) Monolayers of HFF cells were prepared in six-well plates and incubated at 37° C. for 2 d to allow the cells to reach confluency. Media was then aspirated from the wells and 0.2 ml of virus was added to each of three wells to yield 20-30 plaques in each well. The virus was allowed to adsorb to the cells for 1 h and the plates were agitated every 15 minutes. Compounds were diluted in assay media consisting of MEM with Earl's salts supplemented with 2% FBS, L-glutamine, penicillin, and gentamycin. Solutions ranging from 300 μM to 0.1 μM were added to duplicate wells and the plates were incubated for various times, depending on the virus used. For HSV-1 and -2, the monolayers were then stained with 1% crystal violet in 20% methanol and the unbound dye removed by washing with dH2O. For all other assays, the cell monolayer was stained with 1% Neutral Red solution for 4 h then the stain was aspirated and the cells were washed with PBS.
However, unlike assays for HSV-1, HSV-2, MCMV and CMV compounds (where the compound is added to cells prior to virus addition), virus particles are not used in infection in assays for VZV where latent virus in the cells is induced to undergo a lytic infection, since the virions are unstable and infected cells. Thus, in the VZV study, bPEI is added to cell solution and virus is induced from within the cell by induction of lytic infectious cycle.

[1] = tested on: HSV-1, strain DM2.1 (a resistant isolate); assay: Plaque reduction assay in HFF cells; assay type: cell-based; settings: Human alphaherpesvirus 1, HFF
Description: (§2) E-377 and DM2.1 strains of HSV-1 as well as the MS strain of HSV-2 were a gift of Jack Hill (Burroughs Wellcome). HCMV strain AD169 and VZV strain Ellen were obtained from the American Type Culture Collection (ATCC, Manassas, Va.).
as §1, with “PBS. For all assays, plaques were enumerated using a stereomicroscope and the concentration of compound that reduced plaque formation by 50% (EC50) was interpolated from the experimental data.” for “PBS.”

LD50 in rat = settings: conversion in brackets
[2] = rat; cited from earlier work
[3] = Parallel cytotoxicity assay in uninfected HFF cells; settings: human
cell membrane = settings: cited from earlier work; for permeation of cell membranes: when complexed with free DNA
HSV-1, strain E-377 = assay: Plaque reduction assay in HFF cells; assay type: cell-based; settings: Human alphaherpesvirus 1, HFF; for EC50: concentration that reduces viral replication by 50%, various trials, each with its control; for EC90: concentration that reduces viral replication by 90%
Description: as §2
as §1, with “PBS. For all assays, plaques were enumerated using a stereomicroscope and the concentration of compound that reduced plaque formation by 50% (EC50) was interpolated from the experimental data.” for “PBS.”

HCMV, strain AD169 = assay: Plaque reduction assay in HFF cells; assay type: cell-based; settings: for EC50: reduces viral replication by 50%; for EC90: reduces viral replication by 90%
Description: as §2
as §1, with “PBS. For all assays, plaques were enumerated using a stereomicroscope and the concentration of compound that reduced plaque formation by 50% (EC50) was interpolated from the experimental data.” for “PBS.”

DNA [4] = settings: literature values; cited from earlier work
DNA [5] = assay: DNA condensation, internal experimental observations, dint; assay type: biochemical
phage λ = assay: Intracapsid DNA transition temperature by ITC and SAXS; set-up: species or system bacteriophage λ; settings: for DNA transition temperature T*: WT DNA phage λ
Source text: WT bacteriophage λ cI857, with a genome length of 48.5 kb was produced by thermal induction of lysogenic E. coli strain AE1 derived from the 52773 strain. Two phage λ mutants with shorter genome lengths (78 and 94% of the WT DNA length) were produced using a similar procedure. The receptor was the LamB protein purified from pop 154, a strain of E. coli K12 in which the LamB gene has been transduced from Shigella sonnei 3070. Phage and LamB purification details are described in Evilevitch A., et al., Osmotic pressure inhibition of DNA ejection from phage. Proc. Natl. Acad. Sci. U.S.A. 2003; 100:9292-9295 and Ivanovska I., et al., Internal DNA pressure modifies stability of WT phage. Proc. Natl. Acad. Sci. U.S.A. 2007; 104:9603-9608.
All calorimetric measurements were performed using the MicroCal iTC200 system manufactured by GE Healthcare, Life Sciences. […] J. Mol. Biol. 2010; 395:1079-1087.
Small angle X-ray scattering (SAXS) measurements were carried out at the 12-ID B station at the Advanced Photon Source at Argonne National Laboratory. A 12-KeV X-ray beam was used to illuminate the sample with an overall scattering vector q range from 0.006 to 0.850 Å-1. A total of 120 μl of phage solution (˜5×1013 pfu/ml) was injected into a flow-through glass capillary and the solution was oscillated during the SAXS measurement with a flow rate of 10 μl/s. Forty scans with 1 s X-ray exposure time were collected and averaged for each sample. A buffer solution of the dialysis buffer for phage samples was measured using the same SAXS setup, which was further subtracted as the background. After the background subtraction, the scattered intensity I versus q was plotted and the DNA peak region was truncated from 0.18 Å-1 to 0.33 Å-1. This DNA diffraction peak was fitted with a Gaussian curve plus a linear background using function (1), where q0 is the peak center, w is the peak width, A0 is the peak area, k is the slope of the linear background and c is the offset.
[formula] […] Single-Molecule Fluorescence Measurements of Phage Ejection Ensemble Kinetics.
ITC and SAXS assays were used to determine DNA transition temperatures for WT λ-DNA length phage in MgCl2 Tris-buffer with MgCl2 concentrations varied between 5 and 50 mM, see FIGS. 3A-3C. The intracapsid DNA transition occurs at temperature T*, corresponding to either a discontinuity in the linear dependence of ΔHej on temperature (FIG. 3A) or to an abrupt change in the linear decay of the DNA diffraction peak area versus temperature measured by SAXS (FIG. 3B). DNA transition temperatures as a function of Mg-concentration determined by both techniques are in good agreement with each other and are summarized in FIG. 3C. […] However, the inventors have previously shown that at DNA packing density in phage λ, the screening effect of Mg-ions will become progressively smaller with increasing Mg-concentration due to the counter-ion saturation (Evilevitch A., et al., Effects of salt concentrations and bending energy on the extent of ejection of phage genomes. Biophys. J. 2008; 94:1110-1120). Furthermore, if the Mg ion concentration continues to increase, the counterions are forced into regions on the helices that begin to increase the effective repulsions between packaged DNA strands. […]

[6] = CC50, parallel to HSV-1 DM2.1 assay
[7] = CC50, parallel to HSV-1 E-377 assay, reduces cell viability by 50%
[8] = CC50, parallel to HSV-2 strain G assay
[9] = CC50, parallel to VZV Ellen assay
[10] = CC50, parallel to HCMV AD169 assay
[11] = Human betaherpesvirus 5, AD169, HFF

## Nc1nc2c(ncn2COCCO)c(=O)[nH]1 [Acyclovir, reference compound]
In vitro; [6]
  CC50: > 150 µM
In vitro; [7]
  CC50: > 150 µM
In vitro; [8]
  CC50: > 150 µM
In vitro; [9]
  CC50: > 150 µM
HSV-2, strain G; Human alphaherpesvirus 2, HFF
  EC50: 3.69 µM
HSV-2, strain G
  EC50: 2.88 µM
VZV, strain Ellen
  EC50: 5.14 µM
  EC90: 23.8 µM
[1]
  EC50: > 150 µM
  EC90: > 150 µM

## CCCCCCCCCCCCCCCC[N+](C)(C)C.[Br-] [CTAB, hexadecyltrimethylammonium bromide]
LD50 in rat
  LD50 as concentration: ~1.1 mM
[2]
  LD50: 410 mg/kg

## Nc1ccn(C[C@@H](CO)OCP(=O)(O)O)c(=O)n1 [Cidofovir, reference compound]
In vitro; [6]
  CC50: > 150 µM
[1]
  EC50: 2.64 µM
  EC90: > 150 µM

## NCCCN(CCCN)CCCCN(CCCN)CCCN [DAB-Am-4, Polypropylenimine tetramine dendrimer, generation 1,1,4-diaminobutane core, generation 1 solution]
[3]; [10]
  CC50: 15.4 µM
[3]; [6]
  CC50: 28.6 µM
[3]; [7]
  CC50: 38.1 µM
Cell membrane
  permeation of cell membranes: permeate cell membranes when complexed with free DNA
[1]
  EC50: > 19 µM
  EC90: > 19 µM
HSV-1, strain E-377
  EC50: 0.48 µM
  EC90: 3.49 µM
HCMV, strain AD169; [11]
  EC50: 0.51 µM
  EC90: 3.11 µM

## NCCCN(CCCN)CCCN(CCCCN(CCCN(CCCN)CCCN)CCCN(CCCN)CCCN)CCCN(CCCN)CCCN [DAB-Am-8, Polypropylenimine octaamine Dendrimer, generation 2.0,1,4-diaminobutane core]
[3]; [10]
  CC50: 4.41 µM
[3]; [6]
  CC50: 9.32 µM
[3]; [7]
  CC50: 13 µM
Cell membrane
  permeation of cell membranes: permeate cell membranes when complexed with free DNA
[1]
  EC50: 0.1 µM
  EC90: > 3.8 µM
HSV-1, strain E-377
  EC50: 0.09 µM
  EC90: > 3.8 µM
HCMV, strain AD169; [11]
  EC50: 0.08 µM
  EC90: > 3.8 µM

## CCCCCCCCCCCC[N+](C)(C)C.[Br-] [DTAB, dodecyltrimethylammonium bromide]
LD50 in rat
  LD50 as concentration: 0.6 to 3.2 mM
[2]
  LD50: 200 to 1000 mg/kg

## Nc1nc(O)c2ncn(COC(CO)CO)c2n1 [Ganciclovir, reference compound]
In vitro; [10]
  CC50: > 150 µM
HCMV, strain AD169; [11]
  EC50: 0.35 µM
HCMV, strain AD169
  EC50: 0.3 µM

## N.N.N.N.N.N.[Cl-].[Cl-].[Cl-].[Co+3] [Hexaamminecobalt(III) chloride]
DNA [4]
  dint (DNA condensation observed experimentally): 27.8-28.2 Å
DNA [5]; 2-100 mM
  DNA condensed to (internal experimental observations): 28 Å

## [Cl-].[Cl-].[Mg+2] [MgCl2]
Phage λ; 5 mM MgCl2 Tris-buffer
  DNA transition temperature T*: ~22 °C
Phage λ; 20 mM MgCl2 Tris-buffer
  DNA transition temperature T*: ~37 °C
Phage λ; 50 mM MgCl2 Tris-buffer
  DNA transition temperature T*: ~35 °C

## NCCNC(=O)CCN(CCC(=O)NCCN)CCN(CCC(=O)NCCN)CCC(=O)NCCN [PAMAM Dendrimer G0, PAMAM dendrimer, ethylenediamine core, generation 0.0 solution]
DNA [4]
  dint (DNA condensation observed experimentally): 31 Å
HSV-2, strain G; Human alphaherpesvirus 2, HFF
  EC50: 0.09 µM
HSV-2, strain G; Human alphaherpesvirus 2, HFF, reduces viral replication by 90%
  EC90: > 3 µM
DNA [5]; 0.15-2.50 mM
  dint, internal observations: 32-35.2 Å
[3]; [10]
  CC50: 1.39 µM
[3]; [7]
  CC50: 3.79 µM
[3]; [8]
  CC50: 4.77 µM
[3]; [9]
  CC50: 1.17 µM
VZV, strain Ellen
  EC50: > 0.6 µM
  EC90: > 0.6 µM
Cell membrane; compound alone, previously shown
  permeation of the cell membrane: permeate the cell membrane
HSV-1, strain E-377
  EC50: 0.29 µM
  EC90: > 3 µM
HCMV, strain AD169; [11]
  EC50: > 0.6 µM
  EC90: > 0.6 µM

## Cl.Cl.Cl.NCCCCNCCCN [Spermidine trihydrochloride]
DNA [4]
  dint (DNA condensation observed experimentally): 28.8-29.7 Å

## CCCCCCCCCCCCCC[N+](C)(C)C.[Br-] [TTAB, myristyltrimethylammonium bromide]
LD50 in rat
  LD50 as concentration: ~11.6 mM
[2]
  LD50: 3900 mg/kg

## Cl.Cl.Cl.Cl.NCCCNCCCCNCCCN [spermine tetrahydrochloride]
DNA [4]
  dint (DNA condensation observed experimentally): 28 Å
DNA [5]; 0.5-100 mM
  dint, internal experimental observations: 28.2-29.4 Å
Phage λ; WT DNA length phage λ, 10 mM MgCl2 Tris-buffer, 1 mM spermine (4+), 20-40° C.
  intracapsid DNA transition (DNA diffraction peak area vs temperature): no abrupt DNA transition is observed

## Arg4+: poly-L-arginine peptide (SEQ ID NO: 21), Charge=+4 (RRRR; Synthetic Arg4+)
DNA [4]
  dint (DNA condensation observed experimentally): 29.8 Å
DNA [5]; 1-2.5 mM
  dint, internal observations: 29.7-30.3 Å

## Tetralysine (KKKK; Synthetic Lys4+)
DNA [4]
  dint (DNA condensation observed experimentally): 34.9 Å

## Tetraornithine
DNA [4]
  dint (DNA condensation observed experimentally): 32.2 Å

## Trilysine
DNA [4]
  dint (DNA condensation observed experimentally): 38.9 Å

## Triornithine
DNA [4]
  dint (DNA condensation observed experimentally): 35.6 Å
